Data reported in patent US8748461B2, “Metalloenzyme inhibitor compounds” (Viamet Pharmaceuticals, Inc., priority 2011, dated 2014).
≈ marks a conversion by molar mass, not a printed value.

Legend:
[1] = tested on: Septoria tritici (ATCC 26517); assay: Minimum Inhibitory Concentration (MIC) vs. Septoria tritici; assay type: cell-based; conditions: Zymoseptoria tritici, ATCC26517, 168 h; 50% reduction in growth of S. tritici; 22° C., seven days; read-out: Septoria Rating (MIC)
Protocol: C. Minimum Inhibitory Concentration (MIC) vs. Septoria tritici Compounds were assessed for their ability to inhibit the growth of a common strain of the fungal plant pathogen Septoria tritici (ATCC 26517) using a procedure based on a Clinical and Laboratory Standards Institute (CLSI) microdilution assay protocol for filamentous fungi. Stock solutions of the test compounds and standards were prepared in DMSO at 6400 μg/mL. Each stock solution was used to prepare a 2-fold dilution series ranging from 16 to 0.016 μg/mL (total of 11 compound concentrations) in RPMI-1640 (Roswell Park Memorial Institute) medium containing 3-(N-morpholino)propanesulfonic acid (MOPS) buffer and 2% DMSO. A 100 μL aliquot of the dilutions was added to columns 1 (16 μg/mL compound) through 11 (0.016 μg/mL compound) of a 96-well microtiter plate. This format was replicated in a second row of the microtiter plate. Thus, each microtiter plate could include 11 concentrations of four test or control compounds replicated twice. A 100 μL aliquot of RPMI-1640/MOPS/2% DMSO medium was added to column 12 (no compound control) of the microtiter plate. A fresh culture of S. tritici was used to prepare a solution of approximately 5×10^4 colony-forming units per milliliter (cfu/mL) in RPMI/MOPS medium without DMSO. A 100 μL aliquot of this solution was added to all 96 wells in the microtiter plate. […] The assay plates were incubated at 22° C. for seven days in the dark without shaking. […] In each case of Table 3, the Septoria rating scale is as follows: […]

[2] = tested on: Puccinia recondita tritici = Puccinia triticina; assay: Fungicidal activity vs. leaf rust on wheat plants; assay type: in vivo; conditions: 50 ppm spray on wheat (Yuma), inoculated the following day, evaluated 7-9 days later; read-out: Puccinia Rating (% Disease Control @ 50 ppm)
Excerpt: D. Evaluation of Fungicidal Activity Vs. Leaf Rust (Causal Agent Puccinia recondita Tritici=Puccinia triticina; Bayer code PUCCRT). […] Each pot contained 3-8 seedlings. These plants were sprayed until wet with the formulated test compounds. The compounds were formulated at 50 ppm in 10 vol. % acetone plus 90 vol. % Triton X water (deionized water 99.99 wt %+0.01 wt % Triton X100), giving a “formulated test compound.” Formulated test compounds were applied to plants using a turn table sprayer fitted with two opposing air atomization nozzles which delivered approximately 1500 L/ha of spray volume. On the following day, the leaves were inoculated with an aqueous spore suspension of Puccinia recondita tritici and the plants were kept in high humidity overnight to permit spores to germinate and infect the leaf. The plants were then transferred to a greenhouse until disease developed on untreated control plants. Disease severity was evaluated 7-9 days later, depending on the speed of disease development. In each case of Table 3, the Puccinia rating scale is as follows: […]

With `OC(Cn1cnnn1)(c1ccc(F)cc1F)C(F)(F)c1ccc(OCc2ccc(Cl)cc2F)cn1` (centres unmarked) [Compound 1, 1-(5-(4-Chloro-2-fluorobenzyloxy)pyridin-2-yl)-2-(2,4-difluorophenyl)-1,1-difluoro-3-(1H-tetrazol-1-yl)propan-2-ol] the MIC [1] was no more than 0.5 µg/mL and the pest or weed control at 50 ppm [2] was 80 to 100%.
For `OC(Cn1cnnn1)(c1ccc(F)cc1F)C(F)(F)c1ccc(OCc2ccc(F)cc2F)cn1` (centres unmarked) [Compound 2, 1-(5-(2,4-Difluorobenzyloxy)pyridin-2-yl)-2-(2,4-difluorophenyl)-1,1-difluoro-3-(1H-tetrazol-1-yl)propan-2-ol], the MIC [1] was no more than 0.5 µg/mL and the pest or weed control at 50 ppm [2] was 80 to 100%.
With `OC(Cn1cnnn1)(c1ccc(F)cc1F)C(F)(F)c1ccc(Oc2ccc(F)cc2)cn1` (centres unmarked) [Compound 6, 2-(2,4-Difluorophenyl)-1,1-difluoro-1-(5-(4-fluorophenoxy)pyridin-2-yl)-3-(1H-tetrazol-1-yl)propan-2-ol] the MIC [1] was no more than 0.5 µg/mL and the pest or weed control at 50 ppm [2] was 80 to 100%.
In the case of `OC(Cn1cnnn1)(c1ccc(F)cc1F)C(F)(F)c1ccc(Oc2ccc(Cl)cc2)cn1` (centres unmarked) [Compound 7, 1-(5-(4-Chlorophenoxy)pyridin-2-yl)-2-(2,4-difluorophenyl)-1,1-difluoro-3-(1H-tetrazol-1-yl)propan-2-ol], the MIC [1] was no more than 0.5 µg/mL and the pest or weed control at 50 ppm [2] was 80 to 100%.
Work on `COc1ccc(C(F)(F)C(O)(Cn2cnnn2)c2ccc(F)cc2F)nc1` (centres unmarked) [Compound 8, 2-(2,4-Difluorophenyl)-1,1-difluoro-1-(5-methoxypyridin-2-yl)-3-(1H-tetrazol-1-yl)propan-2-ol] yielded an MIC [1] of 0.5 to 1.5 µg/mL (≈ 1.3 to 3.91 µM) and a pest or weed control at 50 ppm [2] of 80 to 100%.
`N#Cc1ccc(Oc2ccc(C(F)(F)C(O)(Cn3ncnn3)c3ccc(Cl)cc3F)nc2)cc1F` (centres unmarked) [Compound 82, 4-((6-(2-(4-Chloro-2-fluorophenyl)-1,1-difluoro-2-hydroxy-3-(2H-tetrazol-2-yl)propyl)pyridin-3-yl)oxy)-2-fluorobenzonitrile] gave an MIC [1] greater than 4 µg/mL.
With `N#Cc1ccc(Oc2ccc(C(F)(F)C(O)(Cn3ncnn3)c3ccc(F)cc3F)nc2)c(F)c1` (centres unmarked) [Compound 90, 4-((6-(2-(2,4-Difluorophenyl)-1,1-difluoro-2-hydroxy-3-(2H-tetrazol-2-yl)propyl)pyridin-3-yl)oxy)-3-fluorobenzonitrile] the MIC [1] was 1.5 to 4 µg/mL (≈ 3.07 to 8.19 µM).
Work on `OC(Cn1cnnn1)(c1ccc(F)cc1F)C(F)(F)c1ccc(Oc2ccc3ccccc3n2)cn1` (centres unmarked) [Compound 108, 2-(2,4-difluorophenyl)-1,1-difluoro-1-(5-(quinolin-2-yloxy)pyridin-2-yl)-3-(1H-tetrazol-1-yl)propan-2-ol] yielded an MIC [1] of no more than 0.5 µg/mL.
`OC(Cn1cnnn1)(c1ccc(F)cc1F)C(F)(F)c1ccc(Oc2nc3cc(Cl)ccc3s2)cn1` (centres unmarked) [Compound 109, 1-(5-((5-chlorobenzo[d]thiazol-2-yl)oxy)pyridin-2-yl)-2-(2,4-difluorophenyl)-1,1-difluoro-3-(1H-tetrazol-1-yl)propan-2-ol] showed an MIC [1] of no more than 0.5 µg/mL.
Compound `OC(Cn1cnnn1)(c1ccc(F)cc1F)C(F)(F)c1ccc(Oc2nc3ccc(Cl)cc3s2)cn1` (centres unmarked) [Compound 110, 1-(5-((6-chlorobenzo[d]thiazol-2-yl)oxy)pyridin-2-yl)-2-(2,4-difluorophenyl)-1,1-difluoro-3-(1H-tetrazol-1-yl)propan-2-ol] has an MIC [1] of no more than 0.5 µg/mL.
`OC(Cn1cnnn1)(c1ccc(F)cc1F)C(F)(F)c1ccc(Oc2ccc(C(F)(F)F)nc2)cn1` (centres unmarked) [Compound 111, 2-(2,4-difluorophenyl)-1,1-difluoro-3-(1H-tetrazol-1-yl)-1-(5-((6-(trifluoromethyl)pyridin-3-yl)oxy)pyridin-2-yl)propan-2-ol] showed an MIC [1] of no more than 0.5 µg/mL.
With `N#Cc1ccc(Oc2ccc(C(F)(F)C(O)(Cn3cnnn3)c3ccc(F)cc3F)nc2)cn1` (centres unmarked) [Compound 112, 5-((6-(2-(2,4-difluorophenyl)-1,1-difluoro-2-hydroxy-3-(1H-tetrazol-1-yl)propyl)pyridin-3-yl)oxy)picolinonitrile] the MIC [1] was no more than 0.5 µg/mL.
